The nature of assay [1]: Inhibition of Saccharomyces cerevisiae alpha-glucosidase using maltose as substrate preincubated for 5 mins followed by substrate addition and measured after 15 mins by LC-TQ-MS/MS analysis.
The nature of assay [2]: Inhibition of Saccharomyces cerevisiae alpha-glucosidase using PNPG as substrate incubated for 10 mins by spectrophotometric method.
The target in assay [3] is T1, Tissue alpha-L-fucosidase (Bos taurus, UniProt Q2KIM0).
T1 sequence (Q2KIM0 whole entry): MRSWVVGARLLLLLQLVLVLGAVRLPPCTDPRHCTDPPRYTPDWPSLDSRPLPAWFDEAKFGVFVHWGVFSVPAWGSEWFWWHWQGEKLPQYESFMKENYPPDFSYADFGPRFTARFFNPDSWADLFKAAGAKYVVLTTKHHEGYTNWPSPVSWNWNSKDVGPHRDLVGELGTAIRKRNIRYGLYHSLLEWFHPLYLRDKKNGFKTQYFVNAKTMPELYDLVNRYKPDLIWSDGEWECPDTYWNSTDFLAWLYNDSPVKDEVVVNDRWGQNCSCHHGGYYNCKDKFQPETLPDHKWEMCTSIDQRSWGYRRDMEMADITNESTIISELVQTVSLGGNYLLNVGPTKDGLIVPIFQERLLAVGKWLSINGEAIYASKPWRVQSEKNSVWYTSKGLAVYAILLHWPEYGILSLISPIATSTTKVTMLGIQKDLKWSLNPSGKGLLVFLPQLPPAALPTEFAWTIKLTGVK
The assay can be described thus: Inhibition of bovine kidney alpha-fucosidase using […] as substrate incubated for 10 mins by spectrophotometric method.

In assay [4] the target is T2, Alpha-mannosidase (Canavalia ensiformis) (UniProt C0HJB3).
T2 sequence (whole entry): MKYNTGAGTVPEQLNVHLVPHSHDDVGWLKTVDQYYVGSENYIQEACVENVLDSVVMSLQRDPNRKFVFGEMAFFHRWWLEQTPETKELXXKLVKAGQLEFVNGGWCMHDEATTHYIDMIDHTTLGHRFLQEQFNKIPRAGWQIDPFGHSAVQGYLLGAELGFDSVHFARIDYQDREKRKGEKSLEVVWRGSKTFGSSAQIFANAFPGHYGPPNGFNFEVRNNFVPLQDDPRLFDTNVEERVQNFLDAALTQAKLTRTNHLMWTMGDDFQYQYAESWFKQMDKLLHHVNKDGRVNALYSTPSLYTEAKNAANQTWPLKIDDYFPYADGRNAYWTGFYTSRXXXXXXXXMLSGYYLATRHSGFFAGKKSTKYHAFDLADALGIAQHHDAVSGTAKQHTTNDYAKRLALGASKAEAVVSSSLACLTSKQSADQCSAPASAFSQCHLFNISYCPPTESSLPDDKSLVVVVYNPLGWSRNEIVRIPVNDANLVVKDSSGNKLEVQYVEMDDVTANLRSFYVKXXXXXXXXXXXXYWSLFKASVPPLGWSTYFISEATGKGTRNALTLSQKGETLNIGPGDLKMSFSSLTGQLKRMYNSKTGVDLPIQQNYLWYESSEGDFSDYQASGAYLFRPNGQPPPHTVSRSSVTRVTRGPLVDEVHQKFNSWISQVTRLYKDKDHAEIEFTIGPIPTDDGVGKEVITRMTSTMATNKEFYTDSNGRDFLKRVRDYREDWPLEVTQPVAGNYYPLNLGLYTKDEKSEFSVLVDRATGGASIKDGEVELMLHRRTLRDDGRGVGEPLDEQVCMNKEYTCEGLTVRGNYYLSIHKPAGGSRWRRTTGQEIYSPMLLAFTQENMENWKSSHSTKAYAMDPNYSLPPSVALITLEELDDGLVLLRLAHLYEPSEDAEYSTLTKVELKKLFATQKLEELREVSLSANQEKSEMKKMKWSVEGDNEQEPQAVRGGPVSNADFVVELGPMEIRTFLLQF
The assay can be described thus: Inhibition of jack bean alpha-mannosidase at 1 mM using […] as substrate incubated for 10 mins by spectrophotometric method.

A further assay has as its system Saccharomyces cerevisiae. Briefly: Inhibition of Saccharomyces cerevisiae alpha-glucosidase at 1 mM using PNPG as substrate incubated for 10 mins by spectrophotometric method.
Assay [5] addresses T3, Tissue alpha-L-fucosidase (Bos taurus) (UniProt Q2KIM0).
T3 sequence (whole entry): T1 sequence (Q2KIM0 whole entry)
The assay can be described thus: Inhibition of bovine kidney alpha-fucosidase at 1 mM using […] as substrate incubated for 10 mins by spectrophotometric method.

The target in a further assay is T4, Alpha-mannosidase (Canavalia ensiformis, UniProt C0HJB3).
T4 sequence (C0HJB3 whole entry): T2 sequence (whole entry)
The assay can be described thus: Inhibition of jack bean alpha-mannosidase using […] as substrate incubated for 10 mins by spectrophotometric method.

For a further assay, the target named is Maltase-glucoamylase (Homo sapiens, UniProt O43451). Briefly: Inhibition of alpha-glucosidase (unknown origin) using sucrose as substrate incubated for 30 mins.

SMILES strings stand for the structures. pIC50: −log10 of the molar value.

Chain of Maltase-glucoamylase (O43451 whole entry): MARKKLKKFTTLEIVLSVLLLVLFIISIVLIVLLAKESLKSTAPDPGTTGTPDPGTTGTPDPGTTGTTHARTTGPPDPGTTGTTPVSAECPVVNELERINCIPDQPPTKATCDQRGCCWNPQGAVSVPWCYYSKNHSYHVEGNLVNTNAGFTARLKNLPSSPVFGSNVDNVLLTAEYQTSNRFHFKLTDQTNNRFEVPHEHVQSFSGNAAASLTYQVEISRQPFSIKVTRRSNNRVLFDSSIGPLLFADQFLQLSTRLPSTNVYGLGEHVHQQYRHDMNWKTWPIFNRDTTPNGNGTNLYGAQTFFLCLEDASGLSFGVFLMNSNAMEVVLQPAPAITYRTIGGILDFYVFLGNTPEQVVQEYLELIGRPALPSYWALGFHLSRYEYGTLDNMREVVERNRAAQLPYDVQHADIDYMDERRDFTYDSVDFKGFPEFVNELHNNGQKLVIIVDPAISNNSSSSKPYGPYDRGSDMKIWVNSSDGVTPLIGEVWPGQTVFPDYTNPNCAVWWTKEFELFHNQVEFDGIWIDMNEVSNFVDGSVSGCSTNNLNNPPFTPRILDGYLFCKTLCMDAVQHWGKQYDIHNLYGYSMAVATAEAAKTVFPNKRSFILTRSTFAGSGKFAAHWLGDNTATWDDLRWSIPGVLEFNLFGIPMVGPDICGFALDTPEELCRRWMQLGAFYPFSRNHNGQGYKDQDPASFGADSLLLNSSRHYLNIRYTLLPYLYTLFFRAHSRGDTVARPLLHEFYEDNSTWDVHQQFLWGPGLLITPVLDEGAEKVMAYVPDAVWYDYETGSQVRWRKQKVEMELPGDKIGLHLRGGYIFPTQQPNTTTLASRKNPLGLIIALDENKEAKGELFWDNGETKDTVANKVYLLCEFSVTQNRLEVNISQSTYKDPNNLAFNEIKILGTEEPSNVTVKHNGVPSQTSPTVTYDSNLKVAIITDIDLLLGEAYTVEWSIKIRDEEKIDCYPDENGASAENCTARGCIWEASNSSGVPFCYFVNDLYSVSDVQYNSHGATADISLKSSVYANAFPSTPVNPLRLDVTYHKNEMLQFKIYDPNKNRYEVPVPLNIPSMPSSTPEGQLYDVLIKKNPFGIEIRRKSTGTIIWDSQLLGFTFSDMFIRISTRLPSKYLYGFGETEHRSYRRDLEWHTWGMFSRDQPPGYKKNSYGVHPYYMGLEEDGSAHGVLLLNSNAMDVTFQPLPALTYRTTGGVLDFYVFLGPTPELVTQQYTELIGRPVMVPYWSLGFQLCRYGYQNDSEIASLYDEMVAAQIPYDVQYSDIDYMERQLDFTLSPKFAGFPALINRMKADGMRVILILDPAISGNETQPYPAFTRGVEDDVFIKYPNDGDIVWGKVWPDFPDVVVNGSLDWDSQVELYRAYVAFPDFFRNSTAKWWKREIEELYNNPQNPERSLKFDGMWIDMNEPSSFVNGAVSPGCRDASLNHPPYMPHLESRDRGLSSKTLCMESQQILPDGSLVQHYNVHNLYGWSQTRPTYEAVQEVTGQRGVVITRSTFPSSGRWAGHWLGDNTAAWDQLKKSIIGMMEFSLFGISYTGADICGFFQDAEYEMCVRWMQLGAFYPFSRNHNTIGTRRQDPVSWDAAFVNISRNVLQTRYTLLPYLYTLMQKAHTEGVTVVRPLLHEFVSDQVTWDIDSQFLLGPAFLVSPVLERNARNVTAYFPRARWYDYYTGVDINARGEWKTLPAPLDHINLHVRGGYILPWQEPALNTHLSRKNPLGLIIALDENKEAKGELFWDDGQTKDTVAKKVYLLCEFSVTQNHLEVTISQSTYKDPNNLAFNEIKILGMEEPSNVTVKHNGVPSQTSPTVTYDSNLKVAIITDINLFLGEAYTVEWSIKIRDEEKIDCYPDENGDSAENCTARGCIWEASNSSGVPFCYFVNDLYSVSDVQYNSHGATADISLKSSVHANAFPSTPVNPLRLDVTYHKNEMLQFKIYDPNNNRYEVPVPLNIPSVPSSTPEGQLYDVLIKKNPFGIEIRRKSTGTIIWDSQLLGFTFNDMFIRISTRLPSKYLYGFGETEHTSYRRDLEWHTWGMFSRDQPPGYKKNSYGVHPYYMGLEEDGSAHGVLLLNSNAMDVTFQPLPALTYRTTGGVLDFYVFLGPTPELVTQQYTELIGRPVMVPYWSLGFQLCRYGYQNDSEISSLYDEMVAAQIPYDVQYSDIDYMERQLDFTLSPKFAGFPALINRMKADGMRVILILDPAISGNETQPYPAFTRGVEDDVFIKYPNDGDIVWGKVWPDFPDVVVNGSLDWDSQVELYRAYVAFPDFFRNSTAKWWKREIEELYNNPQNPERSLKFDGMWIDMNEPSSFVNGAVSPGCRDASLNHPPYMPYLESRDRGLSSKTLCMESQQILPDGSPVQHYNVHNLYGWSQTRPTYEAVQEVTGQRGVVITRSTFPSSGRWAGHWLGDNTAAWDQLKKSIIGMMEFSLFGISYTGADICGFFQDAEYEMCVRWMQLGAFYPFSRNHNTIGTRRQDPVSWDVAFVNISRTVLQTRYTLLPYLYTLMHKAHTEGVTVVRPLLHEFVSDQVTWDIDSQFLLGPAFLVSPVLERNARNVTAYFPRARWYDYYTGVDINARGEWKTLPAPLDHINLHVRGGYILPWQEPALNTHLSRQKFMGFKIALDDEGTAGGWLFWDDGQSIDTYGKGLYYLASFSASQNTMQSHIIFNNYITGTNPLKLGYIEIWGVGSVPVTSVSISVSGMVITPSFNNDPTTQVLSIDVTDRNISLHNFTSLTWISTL

Usually pIC50 stands for −log10 of the IC50, conventionally taken in molar units. By inhibition is commonly meant the change of the read-out against control, counted positive when it falls. Low values mean little suppression, high ones strong suppression. Turning to `COc1cc(O)c2c(c1)C(=O)c1cc(C)cc(O)c1C2=O` [PHYSCION], the pIC50 in assay [1] is 5.27; in assay [2], 4.58; in assay [3], 4.49. Also, the inhibition in assay [4] was less than 50%.
As for `Cc1cc2c(c(=O)[nH]1)C(=O)O/C2=C\c1ccc(CO)n1-c1ccccc1C`, the inhibition (in the assay on Saccharomyces cerevisiae; in assay [5]; in assay [4]) was less than 50% throughout.
With `Cc1cc(O)c2c(c1)C(=O)c1cc(O)cc(O)c1C2=O` [EMODIN], the negative logarithm of the IC50 (pIC50) is 5.39 in assay [1], 4.58 in assay [2] and 4.49 in assay [3]. In assay [4], this molecule had an inhibition of less than 50%.
Take `C=CCn1c(/C=C2\OC(=O)c3c2cc(C)[nH]c3=O)ccc1CO`: the inhibition (in the assay on Saccharomyces cerevisiae; in assay [5]; in assay [4]) was less than 50% in each case.
Take `O=C1Nc2cc(Cl)ccc2/C1=C/c1ccc(O)c(O)c1`: the negative logarithm of the IC50 (pIC50) in assay [2] is 4.82; in assay [3] it was 4.19; against Alpha-mannosidase, 4.55.
For the molecule `Cc1cc2c(c(=O)[nH]1)C(=O)O/C2=C\c1ccc(CO)n1CCc1c[nH]c2ccccc12`, the pIC50 in assay [2] is 5.36; in assay [3] it was 4.89. Further, in assay [4], the inhibition was less than 50%.
The molecule `Cc1cc2c(c(=O)[nH]1)C(=O)O/C2=C\c1ccc(CO)n1-c1ccc(F)cc1` had a pIC50 in assay [2] of 4.68. In addition, the inhibition in assay [5] and in assay [4] was less than 50% each time.
Turning to `OC[C@@H]1N[C@@H](c2ccc(O)cc2)[C@H](O)[C@H]1O`, the pIC50 was 5.03 against Maltase-glucoamylase, 4.60 in assay [2], 4.39 in assay [3] and 4.55 at Alpha-mannosidase.
Turning to `Cc1cc2c(c(=O)[nH]1)C(=O)O/C2=C\c1ccc(CO)n1Cc1ccccc1`, the negative logarithm of the IC50 (pIC50) in assay [2] was 4.68; in assay [3], 4.29; at Alpha-mannosidase, 4.03.
Consider `Cc1cc2c(c(=O)[nH]1)C(=O)O/C2=C\c1ccc(CO)n1-c1ccc(O)cc1`, for which the negative-log IC50 (pIC50) in assay [2] is 4.48; in assay [3], 4.66. In assay [4], this molecule showed an inhibition of less than 50%.
Turning to `O=C1Nc2cc(Cl)ccc2/C1=C/c1ccccc1[N+](=O)[O-]`, the negative-log IC50 (pIC50) in assay [2] was 4.82; in assay [3], 4.19; against Alpha-mannosidase, 4.55.
`C=CC(C)(C)c1c(O)cc2oc3c(CC=C(C)C)c(O)c(O)cc3c(=O)c2c1O` [CUDRAXANTHONE L] had a negative-log IC50 (pIC50) in assay [2] of 4.21. The inhibition in assay [5] and in assay [4] was less than 50% in each case.
As for `COc1ccc([C@@H]2N[C@@H](CO)[C@H](O)[C@H]2O)cc1O` [L-RADICAMINE A], the pIC50 at Maltase-glucoamylase is 5.17; in assay [2], 4.60; in assay [3] it was 4.39; against Alpha-mannosidase, 4.55.
For the molecule `O=C1c2cccc(O)c2C(=O)c2c(O)cc(CO)cc21` [ALOE-EMODIN], the negative-log IC50 (pIC50) is 5.34 in assay [1], 4.58 in assay [2] and 4.49 in assay [3]. Besides, in assay [4], the inhibition is less than 50%.
In the case of `Cc1cc2c(c(=O)[nH]1)C(=O)O/C2=C\c1ccc(CO)n1-c1ccccc1`, the negative-log IC50 (pIC50) was 4.56 in assay [2], 4.42 in assay [3] and 4.21 at Alpha-mannosidase.
Consider `CC(C)=CCc1cc(-c2oc3cc(O)c(CC=C(C)C)c(O)c3c(=O)c2O)cc(O)c1O` [BROUSSONOL E], for which the values for the pIC50 in assay [2] and in assay [3] were 4.07 and 4.05, respectively. The molecule also gave an inhibition in assay [4] of less than 50%.
As to `Cc1ccc(S(=O)(=O)Nc2ccc(C(=O)/C=C/c3ccc(O)c(O)c3)cc2)cc1`, the pIC50 is 4.08 in assay [2], 4.04 in assay [3] and 3.98 against Alpha-mannosidase.
On to `Cc1ccc(S(=O)(=O)Nc2cccc(C(=O)/C=C/c3ccc(O)c(O)c3)c2)cc1`, for which the values for the pIC50 (in assay [2]; in assay [3]; at Alpha-mannosidase) were 4.08, 4.04 and 3.98, respectively.
`O=C(N/N=C/c1ccc(Cl)cc1)c1ccc(-c2nc3ccccc3s2)cc1`: the negative-log IC50 (pIC50) in assay [2] was 4.69; on Alpha-mannosidase it was 4.82. This molecule also gave an inhibition in assay [5] of less than 50%.
Consider `Cc1cc2c(c(=O)[nH]1)C(=O)O/C2=C\c1ccc(CO)n1-c1ccc(Cl)cc1`, for which the pIC50 in assay [2] was 4.66. The inhibition in assay [5] and in assay [4] was less than 50% throughout.
`O=C(O)c1cc(O)c2c(c1)C(=O)c1cccc(O)c1C2=O` [RHEIN]: the pIC50 in assay [1] is 5.25; in assay [2], 4.58; in assay [3], 4.49. The molecule further displayed an inhibition in assay [4] of less than 50%.
With `O=c1c2cc(O)c(O)cc2oc2cc(O)cc(O)c12`, the negative-log IC50 (pIC50) in assay [2] was 4.21. Also, the inhibition in assay [5] and in assay [4] was less than 50% throughout.
In assay [2], `CC(C)=CCc1cc(C(=O)/C=C/c2ccc(O)c(O)c2)c(O)cc1O` [BROUSSOCHALCONE A] had a pIC50 of 3.99. Moreover, the inhibition in assay [5] and in assay [4] was less than 50% throughout.
In the case of `C#CCn1c(/C=C2\OC(=O)c3c2cc(C)[nH]c3=O)ccc1CO`, the inhibition (with Saccharomyces cerevisiae; in assay [5]; in assay [4]) was less than 50% throughout.
For `CC(C)c1ccc(/C=C2\C(=O)Nc3cc(Cl)ccc32)cc1`, the pIC50 in assay [2] was 4.82; in assay [3] it was 4.19; on Alpha-mannosidase it was 4.55.
In the case of `Cc1ccc(S(=O)(=O)Nc2ccc(C(=O)/C=C/c3ccc(O)cc3)cc2)cc1`, the values for the pIC50 (in assay [2]; in assay [3]; at Alpha-mannosidase) were 4.08, 4.04 and 3.98, respectively.
Turning to `Cc1cc2c(c(=O)[nH]1)C(=O)O/C2=C\c1ccc(CO)n1CCc1ccccc1`, the inhibition (with Saccharomyces cerevisiae; in assay [5]; in assay [4]) was less than 50% in each case.
Turning to `OCc1ccc2n1C[C@@H](c1ccc(O)cc1)OC2`, the results for the pIC50 (in assay [2]; in assay [3]; against Alpha-mannosidase) were 5.30, 4.68 and 4.85, respectively.
`Cc1ccc(S(=O)(=O)Nc2cccc(C(=O)/C=C/c3ccc(O)cc3)c2)cc1`: the negative logarithm of the IC50 (pIC50) was 4.08 in assay [2], 4.04 in assay [3] and 3.98 against Alpha-mannosidase.
In the case of `C=CC(C)(C)c1c2c(c(O)c3c(=O)c4ccc(O)c(O)c4oc13)C=CC(C)(C)O2` [MACLURAXANTHONE], the negative logarithm of the IC50 (pIC50) in assay [2] is 4.21. For the same molecule, the inhibition in assay [5] and in assay [4] was less than 50% each time.
In the case of `Oc1cc(O)cc(/C=C/c2cc(O)c(O)c(O)c2)c1`, in assay [2], the pIC50 was 4.51. The inhibition in assay [5] and in assay [4] was less than 50% throughout.

Values taken from ChEMBL document CHEMBL4680156, “Discovery of novel pyrido-pyrrolidine hybrid compounds as alpha-glucosidase inhibitors and alternative agent for control of type 1 diabetes” (Eur J Med Chem, 2020).
